Our source for the EC50 values is ChEMBL document CHEMBL1158022, “Norpregnane glycosides from a Thai soft coral, Scleronephthya pallida” (J Nat Prod, 1999).

The subject of one experiment is Plasmodium falciparum. The experiment in a line: Antimalarial activity against multidrug-resistant Plasmodium falciparum K1 by [3H]hypoxanthine uptake. It counts as functional, organism-based.
Experiment [1] in a line: Cytotoxicity against BCA1 cells by SRB assay. It counts as functional. The note with it: read-out: ED50 (the source's name). (In general: In SRB staining, fixed cells bind dye roughly in proportion to their protein.)

Each structure is given as a SMILES string. In brackets after ≈: the same amount, converted by molar mass.

In the case of `C=C[C@H]1CC[C@H]2[C@@H]3CCc4cc(O[C@H]5O[C@H](C)[C@H](O)[C@H](O)[C@H]5O)ccc4[C@H]3CC[C@]12C`, the EC50 with Plasmodium falciparum (Plasmodium falciparum, K1, read-out: EC50) is 1.5 µg/mL (≈ 3.5 µM); in experiment [1], 10 µg/mL (≈ 23.3 µM).
`CCN(CC)CCCC(C)Nc1ccnc2cc(Cl)ccc12.O=P(O)(O)O.O=P(O)(O)O` (stereo not drawn) [CHLOROQUINE PHOSPHATE] came in with an EC50 with Plasmodium falciparum of 1.6 ×10⁻⁷ g/ml.
